Experimental findings from PubChem BioAssay AID330 (DTP/NCI, 2004) are described below.

The experiment concerns P388 leukemia ip, CD2F1 mice, survival T/C. Kind of experiment: NCI In Vivo Anticancer Drug Screen. Data for tumor model P388 Leukemia (intraperitoneal) in CD2F1 (CDF1) mice. Particulars: endpoint: median survival time, higher = longer survival. The method in brief: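 Mice carrying the transplanted tumor received test compound or vehicle. Survival was recorded in each group, and the value is the treated-group measurement divided by that of the vehicle-treated control group.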

[1] abbreviates: dose: 100.0 mg/kg/injection, schedule: Q01DX009 (ip), vehicle: saline with Tween-80.
Setting [2] is: dose: 60.0 mg/kg/injection, schedule: Q01DX005 (ip), vehicle: saline with Tween-80.
Where [3] appears, read: dose: 120.0 mg/kg/injection, schedule: Q01DX005 (ip), vehicle: saline with Tween-80.
[4] abbreviates: dose: 240.0 mg/kg/injection, schedule: Q01DX005 (ip), vehicle: saline with Tween-80.
Where [5] appears, read: dose: 50.0 mg/kg/injection, schedule: Q01DX005 (ip), vehicle: saline with Tween-80.
Where [6] appears, read: dose: 100.0 mg/kg/injection, schedule: Q01DX005 (ip), vehicle: saline with Tween-80.
Setting [7] is: dose: 200.0 mg/kg/injection, schedule: Q01DX005 (ip), vehicle: saline with Tween-80.
Setting [8] is: dose: 60.0 mg/kg/injection, schedule: Q01DX005 (ip), vehicle: Klucel (hydroxypropylcellulose) (HPC).
Setting [9] is: dose: 120.0 mg/kg/injection, schedule: Q01DX005 (ip), vehicle: Klucel (hydroxypropylcellulose) (HPC).
Where [10] appears, read: dose: 50.0 mg/kg/injection, schedule: Q01DX009 (ip), vehicle: Klucel (hydroxypropylcellulose) (HPC).
Setting [11] is: dose: 100.0 mg/kg/injection, schedule: Q01DX009 (ip), vehicle: Klucel (hydroxypropylcellulose) (HPC).
[12] abbreviates: dose: 200.0 mg/kg/injection, schedule: Q01DX009 (ip), vehicle: Klucel (hydroxypropylcellulose) (HPC).

Values joined by “and” are separate entries in the source; they are usually repeats but may differ in a detail not shown here. Equal entries are not always repeated. Toxic doses and inconclusive results are not listed.

Turning to `N=C(N)C1CC1`, the T/C reads like this: (dose: 12.5 mg/kg/injection, schedule: Q01DX009 (ip), vehicle: saline) 100 % of control; (dose: 25.0 mg/kg/injection, schedule: Q01DX009 (ip), vehicle: saline) 100 % of control; (dose: 50.0 mg/kg/injection, schedule: Q01DX009 (ip), vehicle: saline) 102 % of control.
On to `C=CC1(C)CCC2C(=CCC3C(C)(COC4OC(CO)C(O)C(O)C4O)C(O)CCC23C)C1` (configuration not stated), for which the T/C reads like this: (dose: 3.0 mg/kg/injection, schedule: Q01DX009 (ip), vehicle: Klucel (hydroxypropylcellulose) (HPC)) 100 % of control; (dose: 6.0 mg/kg/injection, schedule: Q01DX009 (ip), vehicle: Klucel (hydroxypropylcellulose) (HPC)) 94 % of control; (dose: 12.0 mg/kg/injection, schedule: Q01DX009 (ip), vehicle: Klucel (hydroxypropylcellulose) (HPC)) 103 % of control; (dose: 24.0 mg/kg/injection, schedule: Q01DX009 (ip), vehicle: Klucel (hydroxypropylcellulose) (HPC)) 103 % of control; (dose: 48.0 mg/kg/injection, schedule: Q01DX009 (ip), vehicle: Klucel (hydroxypropylcellulose) (HPC)) 106 % of control.
As for `CCOP(=O)(OCC)C(=C(Cl)Cl)C(Cl)Cl`, the T/C is 100 % of control and 104 % of control (dose: 12.5 mg/kg/injection, schedule: Q01DX009 (ip), vehicle: saline with Tween-80); 105 % of control and 115 % of control (dose: 25.0 mg/kg/injection, schedule: Q01DX009 (ip), vehicle: saline with Tween-80); 113 % of control and 118 % of control and 124 % of control (dose: 50.0 mg/kg/injection, schedule: Q01DX009 (ip), vehicle: saline with Tween-80); 116 % of control under setting [1].
Take `O=C1C=CC(=O)C(C2OC(=O)C(Br)=C2Br)=C1` (configuration not stated): the T/C by setting is: (dose: 50.0 mg/kg/injection, schedule: Q01DX005 (ip), vehicle: distilled water + Tween-80) 114 % of control; (dose: 100.0 mg/kg/injection, schedule: Q01DX005 (ip), vehicle: distilled water + Tween-80) 115 % of control.
As to `C(=NCCC[Si]12OCCN(CCO1)CCO2)c1ccc(C=NCCC[Si]23OCCN(CCO2)CCO3)cc1`, the T/C is, setting by setting: (dose: 50.0 mg/kg/injection, schedule: Q01DX005 (ip), vehicle: Klucel (hydroxypropylcellulose) (HPC)) 95 % of control; (dose: 100.0 mg/kg/injection, schedule: Q01DX005 (ip), vehicle: Klucel (hydroxypropylcellulose) (HPC)) 97 % of control; (dose: 200.0 mg/kg/injection, schedule: Q01DX005 (ip), vehicle: Klucel (hydroxypropylcellulose) (HPC)) 95 % of control.
For `CC(C)C(Sc1nc(N)nc2nc[nH]c12)C(=O)O` (configuration not stated), the T/C was 95 % of control under setting [1]; 95 % of control (dose: 100.0 mg/kg/injection, schedule: Q04DX003 (ip), vehicle: saline with Tween-80); 100 % of control (dose: 200.0 mg/kg/injection, schedule: Q01DX009 (ip), vehicle: saline with Tween-80); 100 % of control (dose: 200.0 mg/kg/injection, schedule: Q04DX003 (ip), vehicle: saline with Tween-80); 104 % of control (dose: 400.0 mg/kg/injection, schedule: Q01DX009 (ip), vehicle: saline with Tween-80); 95 % of control (dose: 400.0 mg/kg/injection, schedule: Q04DX003 (ip), vehicle: saline with Tween-80).
Turning to `O=C(NC(Cc1ccc(O)cc1)C(=O)O)C(=O)c1c[nH]c2ccc([N+](=O)[O-])cc12` (configuration not stated), the T/C was 97 % of control under setting [2], 97 % of control under setting [3] and 89 % of control under setting [4].
Take `O=C(N/C(=C\c1ccccc1)C(=O)N1CCN(c2ccccc2)CC1)c1ccccc1`: the T/C under setting [5] is 98 % of control, the T/C under setting [6] is 98 % of control and the T/C under setting [7] is 86 % of control.
Consider `[Se]=[Hf]=[Se]`, for which the T/C runs as follows: under setting [2], 97 % of control; under setting [3], 97 % of control; under setting [4], 94 % of control.
For the compound `Cn1c(=O)sc2ccccc21`, the T/C is 102 % of control (dose: 25.0 mg/kg/injection, schedule: Q04DX002 (ip), vehicle: saline with Tween-80); 104 % of control (dose: 50.0 mg/kg/injection, schedule: Q04DX002 (ip), vehicle: saline with Tween-80); 110 % of control (dose: 100.0 mg/kg/injection, schedule: Q04DX002 (ip), vehicle: saline with Tween-80).
On to `CC(C)(C)[Si](C)(C)O[C@H]1C=C(S(=O)(=O)c2ccccc2)[C@H](O)C1`, for which the T/C runs as follows: under setting [8], 100 % of control; under setting [9], 102 % of control; (dose: 240.0 mg/kg/injection, schedule: Q01DX005 (ip), vehicle: Klucel (hydroxypropylcellulose) (HPC)) 100 % of control.
For the compound `C[C@@H]1C(=O)O[C@H]2[C@H]1CC[C@@]1(C)C[C@@H](I)C(=O)[C@@H](C)[C@H]21`, the T/C by setting is: under setting [8], 92 % of control; under setting [9], 108 % of control.
As for `COc1ccc2c(c1)CCn1c(C)c(COC(=O)NC3CCCCC3)c(COC(=O)NC3CCCCC3)c1-2`, the T/C was 151 % of control and 164 % of control (dose: 50.0 mg/kg/injection, schedule: Q01DX009 (ip), vehicle: distilled water + Tween-80); 92 % of control (dose: 100.0 mg/kg/injection, schedule: Q01DX009 (ip), vehicle: distilled water + Tween-80).
Regarding `Oc1ccccc1-c1nc2c3ccccc3c3ccccc3c2[nH]1`, the T/C under setting [5] was 113 % of control, the T/C under setting [6] was 111 % of control and the T/C under setting [7] is 113 % of control.
On to `Nc1nnc(-c2ccc[n+]([O-])c2)o1`, for which the T/C under setting [2] was 96 % of control, the T/C under setting [3] is 102 % of control and the T/C under setting [4] is 105 % of control.
Regarding `CC(=O)N(CCCN1C(=O)c2ccccc2C1=O)c1ccc2c(c1)c(-c1ccccc1)nc1cc([N+](=O)[O-])ccc12`, the T/C runs as follows: (dose: 3.13 mg/kg/injection, schedule: Q01DX009 (ip), vehicle: other) 98 % of control; (dose: 6.25 mg/kg/injection, schedule: Q01DX009 (ip), vehicle: other) 95 % of control; (dose: 12.5 mg/kg/injection, schedule: Q01DX009 (ip), vehicle: other) 87 % of control; (dose: 50.0 mg/kg/injection, schedule: Q01DX009 (ip), vehicle: other) 106 % of control; (dose: 100.0 mg/kg/injection, schedule: Q01DX009 (ip), vehicle: other) 96 % of control.
On to `COc1cccc2c1C(=O)c1c(O)c3c(c(O)c1C2=O)CC(O)(/C(C)=N/NC(=O)CCCCCC(=O)N/N=C(\C)C1(O)Cc2c(O)c4c(c(O)c2C(OC2CC(N)C(O)C(C)O2)C1)C(=O)c1c(OC)cccc1C4=O)CC3OC1CC(N)C(O)C(C)O1` (configuration not stated), for which the T/C was 158 % of control (dose: 0.78 mg/kg/injection, schedule: Q01DX009 (ip), vehicle: water); 157 % of control and 163 % of control (dose: 1.56 mg/kg/injection, schedule: Q01DX009 (ip), vehicle: water); 153 % of control and 154 % of control (dose: 3.13 mg/kg/injection, schedule: Q01DX009 (ip), vehicle: water); 200 % of control and 202 % of control (dose: 6.25 mg/kg/injection, schedule: Q01DX009 (ip), vehicle: water); 88 % of control and 93 % of control (dose: 12.5 mg/kg/injection, schedule: Q01DX009 (ip), vehicle: water).
As for `COc1nc2c(nnn2C2OC(CO)C(O)C(O)C2O)c(=O)[nH]1` (configuration not stated), the T/C is 97 % of control (dose: 60.0 mg/kg/injection, schedule: Q01DX005 (ip), vehicle: saline); 99 % of control (dose: 120.0 mg/kg/injection, schedule: Q01DX005 (ip), vehicle: saline); 100 % of control (dose: 240.0 mg/kg/injection, schedule: Q01DX005 (ip), vehicle: saline).
As to `C=CCOc1cc2c(cc1C(C)(C)c1ccc(OC)cc1)OCO2`, the T/C is 118 % of control under setting [2] and 117 % of control under setting [3].
Regarding `O=C(Nc1cccc(Cl)c1)OCCN1CCNC1=S`, the T/C under setting [10] was 116 % of control, the T/C under setting [11] was 106 % of control and the T/C under setting [12] is 105 % of control.
Regarding `Oc1ccccc1N=Cc1cccs1`, the T/C is 109 % of control under setting [10], 105 % of control under setting [11] and 124 % of control under setting [12].
On to `CN(CC1CNc2nc(N)[nH]c(=O)c2N1C=O)c1ccc(C(=O)NC(CCC(=O)O)C(=O)O)cc1` (configuration not stated), for which the T/C (dose: 50.0 mg/kg/injection, schedule: Q01DX009 (ip), vehicle: sodium bicarbonate) is 101 % of control; the T/C (dose: 100.0 mg/kg/injection, schedule: Q01DX009 (ip), vehicle: sodium bicarbonate) is 106 % of control; the T/C (dose: 200.0 mg/kg/injection, schedule: Q01DX009 (ip), vehicle: sodium bicarbonate) is 108 % of control.
